Ten compounds from patent publication US20260355325A1, “DIMER COMPOUNDS” (KESMALEA THERAPEUTICS LIMITED, priority 2023, published 2026) can be followed below.

Bounds are passed on as bounds.

For one assay, the target named is T1, BRD4 (Homo sapiens, UniProt O60885).
T1 construct: Flp-In LgBiT HEK293 cells; lytic luminescence degradation readout
The experiment in a line: BRD4 HiBiT Assay (degradation of endogenous BRD4 in HiBiT knock-in Flp-In LgBiT HEK293 cells). The assay is classed as cell-based. The conditions noted are these: BRD4 degradation in cells at 6-hour timepoint. An excerpt:
The purpose of the BRD4 HiBiT Assay was to assess the binding affinity of the dimer to BRD4 and subsequent protein degradation.
BRD4 HiBiT cells (Flp-In™ LgBiT and KI HiBiT) were generated by first creating a Flp-In™293 stable cell line, transfecting in the pFRT serial vector containing an integrated Flp recombination target (FRT) site (Thermo Fisher Scientific, Waltham, MA) to HEK293 cells (ATCC, Manassas, VA). The LgBiT expression sequence (Promega Corporation, Madison, WA) was then introduced into the genome via Flp recombinase-mediated DNA recombination at the FRT site. HiBiT sequence (Promega Corporation, Madison, WA) was then knocked in to the endogenous BRD4 protein in the Flp-In™ LgBiT HEK293 cells and successful clones verifying by sequencing. Work on BRD4 HiBiT cell line was performed under license from Promega Corporation (Madison, WA). Cells were maintained in DMEM (Invitrogen™, Waltham, MA) supplemented with 10% FBS (AusGeneX, Molendinar, Australia) and 1% penicillin/streptomycin (Invitrogen™, Waltham, MA) in a humidified incubator at 5% CO2, 37° C.
Compounds were dissolved in DMSO (10 mM), serially diluted from 10 mM to 1.5 nM, and pre-incubated for 2 hours. Exponentially growing cells were seeded at 1×10^4 cells per well of 384 well plate (Corning, New York #3570). Cells were treated with compound for 6 or 48 hours. Following treatment, Nano-Glo® HiBiT Lytic Detection reagent (Promega Corporation, Madison, WA) was added according to manufacturer's instructions, and signal read using BMG CLARIOstar plate reader (BMG Labtech, Ortenburg, Germany). Each data point was performed in duplicate for every experiment. A DC50 value was calculated from linear regression analysis of the plots.
Take `Cc1sc2c(c1C)C(c1ccc(Cl)cc1)=N[C@@H](CC(=O)NCCC[C@@]13OB(c4ccccc4CCC4CN(c5ccc(N6CCC(=O)NC6=O)cc5)C4)O[C@@H]1C[C@@H]1C[C@H]3C1(C)C)c1nnc(C)n1-2` [Example 8, 2-((S)-4-(4-chlorophenyl)-2,3,9-trimethyl-6H-thieno[3,2-f][1,2,4]triazolo[4,3-a][1,4]diazepin-6-yl)-N-(3-((3aS,4S,6S,7aR)-2-(2-(2-(1-(4-(2,4-dioxotetrahydropyrimidin-1(2H)-yl)phenyl)azetidin-3-yl)ethyl)phenyl)-5,5-dimethyltetrahydro-4,6-methanobenzo[d][1,3,2]dioxaborol-3a(4H)-yl)propyl)acetamide]: the half-maximal degradation concentration (DC50) (as a rule, the midpoint of the concentration-degradation curve) is less than 100 nM.
Turning to `Cc1sc2c(c1C)C(c1ccc(Cl)cc1)=N[C@@H](CC(=O)NCCC[C@]13OB(c4ccccc4CCCC(=O)Nc4cccc5c4C(=O)N(C4CCC(=O)NC4=O)C5=O)O[C@H]1C[C@H]1C[C@@H]3C1(C)C)c1nnc(C)n1-2` (stereo partly drawn) [Example 2, 4-(2-((3aR,4R,6R,7aS)-3a-(3-(2-((S)-4-(4-chlorophenyl)-2,3,9-trimethyl-6H-thieno[3,2-f][1,2,4]triazolo[4,3-a][1,4]diazepin-6-yl)acetamido)propyl)-5,5-dimethylhexahydro-4,6-methanobenzo[d][1,3,2]dioxaborol-2-yl)phenyl)-N-(2-(2,6-dioxopiperidin-3-yl)-1,3-dioxoisoindolin-4-yl)butanamide], the DC50 was less than 100 nM.
Same read-out and setting: in the case of `Cc1ncsc1-c1ccc([C@H](C)NC(=O)[C@@H]2C[C@@H](O)CN2C(=O)[C@@H](NC(=O)CCc2ccccc2B2O[C@H]3C[C@H]4C[C@H](C4(C)C)[C@@]3(CCNC(=O)C[C@@H]3N=C(c4ccc(Cl)cc4)c4c(sc(C)c4C)-n4c(C)nnc43)O2)C(C)(C)C)cc1` [Example 6, (2S,4R)-1-((S)-2-(3-(2-((3aR,4R,6R,7aS)-3a-(2-(2-((S)-4-(4-chlorophenyl)-2,3,9-trimethyl-6H-thieno[3,2-f][1,2,4]triazolo[4,3-a][1,4]diazepin-6-yl)acetamido)ethyl)-5,5-dimethylhexahydro-4,6-methanobenzo[d][1,3,2]dioxaborol-2-yl)phenyl)propanamido)-3,3-dimethylbutanoyl)-4-hydroxy-N—((S)-1-(4-(4-methylthiazol-5-yl)phenyl)ethyl)pyrrolidine-2-carboxamide] it was less than 100 nM; in that of `Cc1ncsc1-c1ccc(CNC(=O)[C@@H]2C[C@@H](O)CN2C(=O)C(c2cc(OCc3ccccc3B3O[C@@H]4C[C@@H]5C[C@@H](C5(C)C)[C@]4(CCNC(=O)C[C@@H]4N=C(c5ccc(Cl)cc5)c5c(sc(C)c5C)-n5c(C)nnc54)O3)no2)C(C)C)cc1` (single isomer, unassigned) [Example 13], less than 100 nM; in that of `Cc1ncsc1-c1ccc([C@H](C)NC(=O)[C@@H]2C[C@@H](O)CN2C(=O)[C@@H](NC(=O)CCc2ccccc2B2O[C@H]3C[C@H]4C[C@H](C4(C)C)[C@@]3(CCCNC(=O)C[C@@H]3N=C(c4ccc(Cl)cc4)c4c(sc(C)c4C)-n4c(C)nnc43)O2)C(C)(C)C)cc1` [Example 7, (2S,4R)-1-((S)-2-(3-(2-((3aR,4R,6R,7aS)-3a-(3-(2-((S)-4-(4-chlorophenyl)-2,3,9-trimethyl-6H-thieno[3,2-f][1,2,4]triazolo[4,3-a][1,4]diazepin-6-yl)acetamido)propyl)-5,5-dimethylhexahydro-4,6-methanobenzo[d][1,3,2]dioxaborol-2-yl)phenyl)propanamido)-3,3-dimethylbutanoyl)-4-hydroxy-N—((S)-1-(4-(4-methylthiazol-5-yl)phenyl)ethyl)pyrrolidine-2-carboxamide], less than 100 nM.
Still for that read-out and setting: the result for `Cc1ncsc1-c1ccc(CNC(=O)[C@@H]2C[C@@H](O)CN2C(=O)[C@@H](NC(=O)CCc2cccc(F)c2B2O[C@H]3C[C@H]4C[C@H](C4(C)C)[C@@]3(CCNC(=O)C[C@@H]3N=C(c4ccc(Cl)cc4)c4c(sc(C)c4C)-n4c(C)nnc43)O2)C(C)(C)C)cc1` [Example 3, (2S,4R)-1-((2S)-2-(3-(2-((3aR,4R,6R,7aS)-3a-(2-(2-((6S)-4-(4-chlorophenyl)-2,3,9-trimethyl-6H-thieno[3,2-f][1,2,4]triazolo[4,3-a][1,4]diazepin-6-yl)acetamido)ethyl)-5,5-dimethylhexahydro-4,6-methanobenzo[d][1,3,2]dioxaborol-2-yl)-3-fluorophenyl)propanamido)-3,3-dimethylbutanoyl)-4-hydroxy-N-(4-(4-methylthiazol-5-yl)benzyl)pyrrolidine-2-carboxamide] reads less than 100 nM; that for `Cc1ncsc1-c1ccc(CNC(=O)[C@@H]2C[C@@H](O)CN2C(=O)[C@@H](NC(=O)CCc2ccccc2B2O[C@H]3C[C@H]4C[C@H](C4(C)C)[C@@]3(CCCNC(=O)C[C@@H]3N=C(c4ccc(Cl)cc4)c4c(sc(C)c4C)-n4c(C)nnc43)O2)C(C)(C)C)cc1` [Example 5, (2S,4R)-1-((S)-2-(3-(2-((3aR,4R,6R,7aS)-3a-(3-(2-((S)-4-(4-chlorophenyl)-2,3,9-trimethyl-6H-thieno[3,2-f][1,2,4]triazolo[4,3-a][1,4]diazepin-6-yl)acetamido)propyl)-5,5-dimethylhexahydro-4,6-methanobenzo[d][1,3,2]dioxaborol-2-yl)phenyl)propanamido)-3,3-dimethylbutanoyl)-4-hydroxy-N-(4-(4-methylthiazol-5-yl)benzyl)pyrrolidine-2-carboxamide], less than 100 nM.
As to `Cc1ncsc1-c1ccc(CNC(=O)[C@@H]2C[C@@H](O)CN2C(=O)[C@@H](NC(=O)CCc2ccccc2B2O[C@H]3C[C@H]4C[C@H](C4(C)C)[C@@]3(CCNC(=O)C[C@@H]3N=C(c4ccc(Cl)cc4)c4c(sc(C)c4C)-n4c(C)nnc43)O2)C(C)(C)C)cc1` [Example 1, (2S,4R)-1-((S)-2-(3-(2-((3aR,4R,6R,7aS)-3a-(2-(2-((S)-4-(4-chlorophenyl)-2,3,9-trimethyl-6H-thieno[3,2-f][1,2,4]triazolo[4,3-a][1,4]diazepin-6-yl)acetamido)ethyl)-5,5-dimethylhexahydro-4,6-methanobenzo[d][1,3,2]dioxaborol-2-yl)phenyl)propanamido)-3,3-dimethylbutanoyl)-4-hydroxy-N-(4-(4-methylthiazol-5-yl)benzyl)pyrrolidine-2-carboxamide], the DC50 is less than 100 nM.

The assay is the same for the next values; noted with them: BRD4 degradation in cells at 48-hour timepoint.
Regarding `Cc1cc([C@H](C(=O)N2C[C@H](O)C[C@H]2C(=O)NCc2ccc(Cl)cc2OCCCB2O[C@H]3C[C@H]4C[C@H](C4(C)C)[C@@]3(CCNC(=O)C[C@@H]3N=C(c4ccc(Cl)cc4)c4c(sc(C)c4C)-n4c(C)nnc43)O2)C(C)C)on1` [Example 12, (2S,4R)—N-(4-chloro-2-(3-((3aR,4R,6R,7aS)-3a-(2-(2-((S)-4-(4-chlorophenyl)-2,3,9-trimethyl-6H-thieno[3,2-f][1,2,4]triazolo[4,3-a][1,4]diazepin-6-yl)acetamido)ethyl)-5,5-dimethylhexahydro-4,6-methanobenzo[d][1,3,2]dioxaborol-2-yl)propoxy)benzyl)-4-hydroxy-1-((R)-3-methyl-2-(3-methylisoxazol-5-yl)butanoyl)pyrrolidine-2-carboxamide], the DC50 fell in the range of 1000 to 10000 nM.
Same read-out and setting: in the case of `Cc1cc(C(C(=O)N2C[C@H](O)C[C@H]2C(=O)NCc2ccc(Cl)cc2B2O[C@H]3C[C@H]4C[C@H](C4(C)C)[C@@]3(CCNC(=O)C[C@@H]3N=C(c4ccc(Cl)cc4)c4c(sc(C)c4C)-n4c(C)nnc43)O2)C(C)C)on1` (single isomer, unassigned) [Example 10] it was 1000 to 10000 nM.
